Measurements from patent publication EP3498266A1, “FORMULATIONS OF COPANLISIB” (priority 2017, dated 2019).
Like-named read-outs stand apart in the source and are kept apart here.

Assays:
[1] = Solubility of copanlisib dihydrochloride, flask method, HPLC; format: physicochemical; conditions: for Descriptive term: according to Ph. Eur./USP; for solubility at 19 h: 25 °C, thermodynamic from solid
Description: The suspension was centrifuged before HPLC analysis.

[2] = test system: indolent B-cell non-Hodgkin lymphoma
Experimental: Methods: Patients with indolent B-cell non-Hodgkin lymphoma (4 subtypes: follicular (FL), marginal zone (MZL), small lymphocytic (SLL) and lymphoplasmacytoid/Waldenström macroglobulinemia (LPL-WM)) and relapsed after, or refractory to, ≥2 prior lines of treatment were eligible. […] Copanlisib (60 mg, I.V.) was intermittently administered on days 1, 8 and 15 of a 28-day cycle.

[3] = Hydrolytic (chemical) stability in aqueous solution, HPLC; format: physicochemical
Experimental: The different aqueous solutions (0.05 % copanlisib; after addition of 50 % 2-propanol, [buffer solution filtered with 0.5µm membrane filter]) were stored at 25°C and 70°C for 24 h and one week. An analytical HPLC-method has been developed to determine assay and organic impurities of copanlisib as well as degradation products. Table 2 : Results on hydrolytic stability of copanlisib

[4] = full analysis set, 142 patients

In the case of `COc1c(OCCCN2CCOCC2)ccc2c1N=C(NC(=O)c1cnc(N)nc1)N1CCN=C21.Cl.Cl` [copanlisib dihydrochloride, 2-amino-N-[7-methoxy-8-(3-morpholin-4-ylpropoxy)-2,3-dihydroimidazo[1,2-c]quinazolin-5-yl]pyrimidine-5-carboxamide dihydrochloride], the Descriptive term ([1]; 0.1 M Hydrochloric acid) is reported as “freely soluble”, the solubility at 19 h ([1]; 0.1 M hydrochloric acid, simulated gastric fluid) is reported as 190 mg/mL and the solubility at 19 h ([1]; aqueous buffer, Buffer (citrate) pH 3) is reported as 250 mg/mL. The solubility at 19 h ([1]; aqueous buffer, Buffer (citrate) pH 4) was 25 mg/mL, the solubility at 19 h ([1]; aqueous buffer, Buffer (citrate) pH 5) was 0.62 mg/mL and the solubility at 19 h ([1]; aqueous buffer, Buffer (phosphate) pH 1) was 510 mg/mL. The solubility at 19 h ([1]; aqueous buffer, Buffer (phosphate) pH 2) was 250 mg/mL, the solubility at 19 h ([1]; aqueous buffer, Buffer (phosphate) pH 6) was 0.001 mg/mL and the Descriptive term ([1]; Buffer (citrate) pH 3) was “freely soluble”. The Descriptive term ([1]; Buffer (citrate) pH 4) was “soluble”, the Descriptive term ([1]; Buffer (citrate) pH 5) was “very slightly soluble” and the Descriptive term ([1]; Buffer (phosphate) pH 1) was “freely soluble”. The Descriptive term ([1]; Buffer (phosphate) pH 2) was “freely soluble”, the Descriptive term ([1]; Buffer (phosphate) pH 6) was “practically insoluble” and the Descriptive term ([1]; Buffer (phosphate) pH 7) was “practically insoluble”. The Descriptive term ([1]; Water) was “freely soluble” and the solubility at 19 h ([1]; water) was 230 mg/mL.
For `COc1c(OCCCN2CCOCC2)ccc2c1N=C(NC(=O)c1cnc(N)nc1)N1CCN=C21` [copanlisib, 2-amino-N-[7-methoxy-8-(3-morpholin-4-ylpropoxy)-2,3-dihydroimidazo[1,2-c]quinazolin-5-yl]pyrimidine-5-carboxamide], the CR ([2]; FL subset) was 14.4%, the ORR ([2]; FL subset) was 58.7% and the PR ([2]; FL subset) was 44.2%. The “estimated Kaplan-Meier (KM) median duration of response” value ([2]; FL subset (range 0-687)) was 370 days, the CR ([2]; MZL subset) was 8.7% and the ORR ([2]; MZL subset) was 69.6%. The PR ([2]; MZL subset) was 60.9%, the “AEs of interest: colitis” value ([2]; all grade) was 0.7% and the “AEs of interest: diarrhea” value ([2]; all grade) was 18%. The “AEs of interest: lung infection” value ([2]; all grade) was 14%, the “AEs of interest: neutropenia” value ([2]; all grade) was 25% and the “AEs of interest: pneumonitis” value ([2]; all grade) was 7%. For the same molecule, the “treatment-related adverse events: hypertension” value ([2]; all grade) was 29%, the “treatment-related adverse events: transient hyperglycemia” value ([2]; all grade, 60 mg I.V. days 1, 8, 15 of 28-day cycle) was 49% and the “Laboratory toxicities: alanine aminotransferase” value ([2]; all-grade) was 23%. For the same molecule, the “Laboratory toxicities: aspartate aminotransferase” value ([2]; all-grade) was 28%, the Median overall survival ([2]; at the time of primary analysis) was “had not yet been reached” and the “complete response (CR)” value ([2]; full analysis set) was 12.0%. For the same molecule, the “estimated Kaplan-Meier (KM) median duration of response” value ([2]; full analysis set (range 0-687)) was 687 days, the colonic perforations [2, 4] was “No colonic perforations occurred” and the deaths [2, 4] was 6. For the same molecule, the non-fatal opportunistic infections [2, 4] was “two”, the “AEs of interest: colitis” value ([2]; human, in vivo) was 0.7% and the “AEs of interest: diarrhea” value ([2]; human, in vivo) was 4%. For the same molecule, the “AEs of interest: lung infection” value ([2]; human, in vivo) was 11%, the “AEs of interest: neutropenia” value ([2]; human, in vivo) was 19% and the “AEs of interest: pneumonitis” value ([2]; human, in vivo) was 1.4%. For the same molecule, the “Laboratory toxicities: alanine aminotransferase” value ([2]; human, in vivo) was 19%, the “Laboratory toxicities: aspartate aminotransferase” value ([2]; human, in vivo) was 25% and the “treatment-related adverse events: hypertension” value ([2]; human, in vivo) was 23%. For the same molecule, the “treatment-related adverse events: transient hyperglycemia” value ([2]; human, in vivo) was 40%, the “deaths attributed to copanlisib” value ([2]; lung infection, respiratory failure, and a thromboembolic event) was 3 and the “KM-estimate of median PFS” value ([2]; range 0-736) was 340 days. For the same molecule, the Appearance ([3]; 0.1M HCl, 1 week, 25°C) was “slightly colored solution”, the Appearance ([3]; 0.1M HCl, 1 week, 70°C) was “slightly colored solution” and the Appearance ([3]; 0.1M HCl, 24 h, 25°C) was “slightly colored solution”. For the same molecule, the Appearance ([3]; 0.1M HCl, 24h, 70°C) was “slightly colored solution”, the Appearance ([3]; 0.1M HCl, Initial) was “slightly colored solution” and the Appearance ([3]; 0.1 M NaOH, 1week, 25°C) was “slightly colored solution”. For the same molecule, the Appearance ([3]; 0.1 M NaOH, 1week, 70°C) was “slightly colored solution”, the Appearance ([3]; 0.1 M NaOH, 24 h, 25°C) was “slightly colored solution” and the Appearance ([3]; 0.1 M NaOH, 24h, 70°C) was “slightly colored solution”. For the same molecule, the Appearance ([3]; 0.1 M NaOH, Initial) was “slightly colored solution”, the Appearance ([3]; Buffer pH 7, 1 week, 25°C) was “slightly colored turbid solution” and the Appearance ([3]; Buffer pH 7, 1 week, 70°C) was “slightly colored solution”. The Appearance ([3]; Buffer pH 7, 24 h, 25°C) was “slightly colored turbid solution”, the Appearance ([3]; Buffer pH 7, 24 h, 70°C) was “slightly colored solution” and the Appearance ([3]; Buffer pH 7, Initial) was “slightly colored turbid solution”. The Appearance ([3]; Water, 1 week, 25°C) was “slightly colored solution”, the Appearance ([3]; Water, 1 week, 70°C) was “slightly colored solution” and the Appearance ([3]; Water, 24 h, 25°C) was “slightly colored solution”. The Appearance ([3]; Water, 24h, 70°C) was “slightly colored solution” and the Appearance ([3]; Water, Initial) was “slightly colored solution”.
